The assay addresses T1, GCP-II (Homo sapiens, UniProt Q04609).
T1 construct: expressed in transfected cells; host or cells: PC3-PIP cells: washed membrane preparation after freeze-thaw cycles, 10 µg per well
Put plainly: fluorescent enzymatic inhibition assay (competitive binding assay; NAAG hydrolysis by PC3-PIP membranes, Amplex Red glutamic acid readout). It is filed as biochemical. The settings on record: upper limit set from the EC50; read-out: upper limit of Ki to PSMA. The method, then:
Binding affinity of JB-1498 toward GCP-II was determined using fluorescent enzymatic inhibition assay (Kozikowski et al. [2004]) as detailed in the Additional file 1.
PC3-PIP PSMA expressing cells were grown to confluency, harvested in 50mM Tris-HCl, pH 7.5 and subjected to 4 freezing and thawing cycles. Cell membranes were washed three times by centrifugation at 12,000g or higher. The cell membrane mixture was diluted to a concentration of 50 mg/mL in 50mM Tris-HCl, pH 7.5 (based on wet weight of the solid after centrifugation) and stored in a -80°C freezer until ready to use.
The assays were conducted on 96-well plates. […] Then the glutamic acid concentration was measured with Amplex Red glutamic acid assay kit (Invitrogen-Molecular Probes, now part of Thermo Fisher Scientific, Waltham, MA)) using a fluorescent plate reader (excitation at 530nm, measuring emission at 590nm). The fluorescence signals at 590nm were then normalized and normalized fluorescence was plotted against the Log concentration of JB1498 ligand (Figure 1). EC50 was determined using the equation: Fluorescence = baseline + (max fluorescence – baseline) […]. Microsoft Excel and KaleidaGraph (Synergy Software, Reading, PA) were used for data processing and graphing.

Numbered stars: 1 amine (or outer) side, 2 acyl side, 3 side chain; on linkers, the order of the positions; unused ones are H or OH. Peptide text beside a SMILES is read from it. * marks the point of attachment. DOTA = O=C(O)CN1CCN(CC(=O)O)CCN(CC(=O)*)CCN(CC(=O)O)CC1; γGlu = O=C(O)[CH](CCC(=O)[*:2])N[*:1]; CO = O=C([*:1])[*:2]; Ahx = NCCCCCC(=O)O Where only a bound is given, the exact number is not on record here.

T1 sequence (Q04609 whole entry): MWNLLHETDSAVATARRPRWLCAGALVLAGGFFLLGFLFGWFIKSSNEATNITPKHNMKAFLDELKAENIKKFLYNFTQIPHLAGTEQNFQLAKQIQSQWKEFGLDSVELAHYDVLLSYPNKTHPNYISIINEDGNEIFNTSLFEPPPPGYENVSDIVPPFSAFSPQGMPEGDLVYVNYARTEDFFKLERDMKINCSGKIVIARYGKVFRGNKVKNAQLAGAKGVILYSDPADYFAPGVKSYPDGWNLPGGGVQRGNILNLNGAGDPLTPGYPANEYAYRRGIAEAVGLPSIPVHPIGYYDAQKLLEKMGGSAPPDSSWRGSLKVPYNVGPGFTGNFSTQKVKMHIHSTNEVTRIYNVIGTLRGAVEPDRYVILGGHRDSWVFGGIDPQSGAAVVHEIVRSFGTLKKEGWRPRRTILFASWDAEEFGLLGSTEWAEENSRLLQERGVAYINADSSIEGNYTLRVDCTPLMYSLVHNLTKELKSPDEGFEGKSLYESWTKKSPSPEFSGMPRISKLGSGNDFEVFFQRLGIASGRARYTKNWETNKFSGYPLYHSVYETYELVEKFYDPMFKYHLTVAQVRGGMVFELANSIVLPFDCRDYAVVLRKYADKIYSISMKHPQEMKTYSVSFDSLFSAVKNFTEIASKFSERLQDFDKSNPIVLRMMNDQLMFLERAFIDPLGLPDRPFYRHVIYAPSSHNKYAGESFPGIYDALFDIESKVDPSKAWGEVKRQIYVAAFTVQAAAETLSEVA

With `NC(=O)C(CCCCNC(=O)CN1CCN(CC(=O)O)CCN(CC(=O)O)CCN(CC(=O)O)CC1)NC(=O)C(Cc1ccc(O)cc1)NC(=O)C(CCC(=O)O)NC(=O)C(CCC(=O)O)NC(=O)C(CCC(=O)O)NC(=O)CCCCCNC(=O)CCC(NC(=O)NC(CCC(=O)O)C(=O)O)C(=O)O` (stereo not shown) [JB-1498] ({Glu-CO-γGlu-Ahx}-EEEYK(DOTA)-NH2; configuration not given here), the Ki is less than 0.3 nM.
